According to ChEMBL document CHEMBL5614396, “Structure-Activity Relationship Studies in Benzothiadiazoles as Novel Vaccine Adjuvants” (J Med Chem, 2024):

Tests used:
[1] = test system: BMDC; test: Vaccine adjuvant activity in Balb/c mouse BMDC assessed as increase in IL-12 production at 10 uM incubated for 20 hrs by ELISA (reference value: 1.35 +/-0.1 ng/ml); type: functional
[2] = test system: THP-1; test: Vaccine adjuvant activity in human THP-1 cells expressing CD63-Turbo-luciferase and CD9-Emerald green fluorescent protein reporter assessed as extracellular vesicle release by measuring reporter activation at 10 uM incubated for 48 hrs by TurboLuc luciferase based chemiluminescence assay (reference value: 0%); type: functional
[3] = Cytotoxicity against Balb/c mouse BMDC assessed as cell viability at 10 uM incubated for 20 hrs by MTT assay (reference value: 100 +/-0.6%); type: toxicity, cell-based; details: BMDC (bone marrow-derived dendritic cells), read-out: Activity
[4] = test system: BMDC; test: Vaccine adjuvant activity in Balb/c mouse BMDC assessed as induction of Ca2+ influx at 10 uM by Fura-2/8-AM dye based fluorescence analysis (reference value: 0%); type: functional

| Structure (SMILES) | Activity [1] [ng/mL] | Activity [2] [%] | viability at 20 h, 10 µM [3] [%] | Activity [4] [%] |
| --- | --- | --- | --- | --- |
| CCOC(=O)c1c(NS(=O)(=O)c2ccc(Br)c3nsnc23)sc(C)c1C | 1.9 | 70.3 | 96.3 | 73.6 |
| CCOC(=O)c1c(NS(=O)(=O)c2cccc3nsnc23)sc2c1CCCC2 | 1.83 | 156.9 | 114 | 102.1 |
| Cc1sc(NS(=O)(=O)c2cccc3nsnc23)c(C(=O)OC(C)(C)C)c1C | 3.17 | 128.8 | 118 | 136.7 |
| CCOC(=O)c1c(NS(=O)(=O)c2cccc3nsnc23)sc(-c2cccs2)c1C | 1.03 | 17.9 | 77 | 100.6 |
| CCOC(=O)c1ccsc1NS(=O)(=O)c1cccc2nsnc12 | 0.48 | 60.9 | 72.5 | 58.3 |
| CCOC(=O)c1c(NS(=O)(=O)c2cccc3nsnc23)sc(-c2ccoc2)c1C | 1.18 | 114.4 | 82.8 | 94.7 |
| CCOC(=O)c1c(NS(=O)(=O)c2cccc3nsnc23)sc2c1CCNC2 | 0.72 | 0.1 | 94.8 | -35.3 |
| Cc1sc(NS(=O)(=O)c2cccc3nsnc23)c(C(=O)O)c1C | 1.43 | -1.3 | 105 | -31.3 |
| CCOC(=O)c1c(NS(=O)(=O)c2cccc3nonc23)sc(C)c1C | 1.47 | 4.7 | 105 | -12.5 |
| CCOC(=O)c1c(NS(=O)(=O)c2cccc3ccncc23)sc(C)c1C | 1.12 | 3.6 | 87.5 | 4.1 |
| CCOC(=O)c1c(NS(=O)(=O)c2cccc3c2NCCN3)sc(C)c1C | 1.06 | 2.7 | 89.3 | 2 |
| CCOC(=O)c1c(NS(=O)(=O)c2cccc(N)c2N)sc(C)c1C | 1.39 | 2.4 | 107 | -6.8 |
| CCOC(=O)c1cc(C)ccc1NS(=O)(=O)c1cccc2nsnc12 | 1.22 | 10.8 | 60.1 | -11.5 |
| Cc1sc(NS(=O)(=O)c2cccc3nsnc23)c(C(=O)OCCC(C)C)c1C | 2.87 | 141.6 | 81.2 | 262.4 |
| Cc1sc(NS(=O)(=O)c2cccc3nsnc23)c(C(=O)OCc2ccccc2)c1C | 2.74 | 169.9 | 128 | 175.5 |
| CCOC(=O)c1c(NS(=O)(=O)c2cccc3nsnc23)sc(C)c1CC | 2.27 | 112 | 100 | 117.6 |
| CCOC(=O)c1ncsc1NS(=O)(=O)c1cccc2nsnc12 | 1.04 | 1.3 | 91.3 | -6.4 |
| Cc1sc(NS(=O)(=O)c2cccc3nsnc23)c(C(=O)OC(C)C)c1C | 3 | 149.2 | 132 | 178.4 |
| CCOC(=O)c1c(NS(=O)(=O)c2cccc3ncccc23)sc(C)c1C | 1.1 | 0 | 117 | -13.3 |
| CCOC(=O)c1c(NS(=O)(=O)c2cccc3nsnc23)sc2ccccc12 | 1.11 | 98.3 | 99.1 | 97 |
| Cc1sc(NS(=O)(=O)c2cccc3nsnc23)c(C(=O)Oc2ccccc2)c1C | 1.58 | 39.8 | 107 | 85.3 |
| CCOC(=O)c1c(C)csc1NS(=O)(=O)c1cccc2nsnc12 | 1.12 | 99 | 100 | 76.7 |
| CCOC(=O)c1cc(C)sc1NS(=O)(=O)c1cccc2nsnc12 | 0.81 | 106.9 | 93 | 78.5 |
| CCOC(=O)c1sc(C)c(C)c1NS(=O)(=O)c1cccc2nsnc12 | 1.67 | 154.1 | 130 | 74.2 |
